Patent US6818618B1, “Inhibition of smooth muscle cell migration by Tenascin-C peptides” (Cedars-Sinai Medical Center, priority 1998, dated 2004)
“Also recorded” adds a separate entry of the source.

Key:
[1] = test system: adhesion of newborn SMCs to Tenascin-C; assay: Adhesion of newborn SMCs to Tenascin-C-coated wells in the presence of soluble agents; format: cell-based, rat; settings: for effect on adhesion of SMCs to Tenascin-C (summary statement): concentration not given; for inhibition of attachment of SMCs to Tenascin-C: 0.1 mg/ml GRGDS peptide, higher concentrations did not significantly alter adhesion
Experimental: (§1) Microtiter plates (Falcon, Becton Dickinson, Oxnard, Calif.) were coated with the respective substrate for one (1) hour at 37° C. Nonspecific sites were blocked with 1 mg/ml BSA in PBS. […] After incubation for 60 min. at 37° C., nonadherent cells were removed with gentle washing with PBS. The number of attached cells were quantified by staining cells with 0.2% crystal violet in 20% methanol, lysing with 1% SDS, and measuring the absorbance at 550 nm (14).
(§2) It has been shown that the interaction of some cells with Tenascin-C is mediated by the RGD motif (20, 23). Therefore, an adhesion assay was used to determine the role of RGD in the interaction between Tenascin-C and SMCs. The specificity of the adhesion was determined by coating the wells with the recombinant 10th-type III repeat of fibronectin (24). In FIG. 2, 96-well plates were coated with either BSA (BSA), Tenascin-C (TN), or the recombinant 10th-type III repeat of fibronectin (10III) as described for FIG. 1. Newborn SMCs were detached, washed once in adhesion buffer and added to various concentrations of the peptide GRGDS. Cells and peptides were then preincubated for 30 min. prior to plating. The values shown are the mean±SEM of triplicate samples. Nonspecific binding to control wells coated with BSA was not subtracted from each value.
(§3) In FIG. 3, 96-well plates were coated with solutions containing intact fibronectin (FN), the recombinant 10th-type III repeat of fibronectin (FN10III), or Tenascin-C (TN). […] The number of attached cells was quantified by a colorimeter. Values shown are from a representative experiment in which triplicates are plotted as mean±SEM.
(§4) In FIG. 4, 96-well plates were coated with either Tenascin-C (TN) or the recombinant tenth type III repeat of fibronectin (10III) as described for FIG. 1. […] Values shown are from the mean±SD of triplicate samples.
To distinguish between these possibilities, the recombinant FN-L proteins were labeled with ^125I, and their ability to coat the tissue culture dishes was compared to the Fbg-L domain. […] To determine whether the binding to tissue culture dishes had influenced the activity of the recombinant proteins, the ability of soluble Fbg-L or FN-L domains and subdomains to inhibit the interaction between intact Tenascin-C and SMCs was examined. […] In FIG. 6, 96-well plates were coated with fibronectin (FN), the recombinant tenth type III repeat of fibronectin (10III), or an intact Tenascin-C molecule (TN). Newborn SMCs were incubated for 15 min. at 37° C. with a solution of 200 μg/ml of a recombinant Fbg-L domain, the entire FN-L domain (FN-L), or the alternatively spliced A-D repeats (AD). […] Adhesion was measured as described above. Values shown are from representative experiments in which triplicates are plotted±SEM.
(§5) In FIG. 8(B), 96-well plates were coated with BSA, intact Tenascin-C (TN) or the fibrinogen-like domain (Fbg-L), and adhesion of newborn cells was measured in the presence of 1 μM synthetic peptides.

[2] = test system: adhesion of newborn SMCs to the recombinant 10th-type III repeat of fibronectin; assay: Adhesion of newborn SMCs to the recombinant 10th-type III repeat of fibronectin in the presence of soluble agents; format: cell-based, rat
Experimental: as §1, §2, §3, §4
To distinguish between these possibilities, the recombinant FN-L proteins were labeled with ^125I, and their ability to coat the tissue culture dishes was compared to the Fbg-L domain. […] Adhesion was measured as described above. […]

[3] = test system: adhesion of newborn SMCs to the Fbg-L domain; assay: Adhesion of newborn SMCs to Fbg-L domain-coated wells in the presence of soluble agents; format: cell-based, rat; settings: EDTA or cations; not shown
Experimental: as §1, §5

[4] = test system: adhesion of SMCs to peptide VIII; assay: Adhesion of SMCs to peptide VIII-coated wells in the presence of soluble agents; format: cell-based, rat; settings: EDTA or cations; not shown
Experimental: as §1

newborn aortic SMCs = assay: Adhesion assay: newborn SMCs on wells coated with the substance; format: cell-based, rat; settings: for adhesion activity relative to the Fbg-L domain: peptide coated at 10 μg/ml on tissue culture dishes; for level of adhesion of newborn SMCs to coated substrate: wells coated with 10 μg/ml substrate
Experimental: (§6) Adult Aortic SMCs were cultured as described (12). Newborn (9-day old) aortic SMCs were obtained from Dr. Stephen, M. Schwartz, of University of Washington, and subsequently cultured (13). Briefly, rat aortic SMCs were isolated by enzymatic digestion of rat aorta (Sprague-Dawley, 2 months old, 270 g). Cells were grown in DMEM/F12 media (Gibco) supplemented with 10% fetal bovine serum (Gibco). After reaching confluence, cells (between 3rd and 6th passages) were used for adhesion studies.
as §1
To determine the concentration for the adhesion assays, microtiter plates were coated with increasing concentrations (1-100 μg/ml) of substrates, and the number of adherent cells was quantified. Adhesion of cells to Tenascin-C reached saturation levels at coating concentrations of 10 μg/ml (not shown). Therefore, all the subsequent adhesion assays were performed by coating the wells with a 10 μg/ml substrate.
The active domain of Tenascin-C was mapped using recombinant proteins corresponding to full-length Fbg-L and FN-L domains as well as FN-L subdomains 6-8, A-D, A1A2, and D. The ability of these domains, or subdomains, to interact with newborn SMCs was determined by an adhesion assay, and the results are shown in FIG. 5. In FIG. 5, a microtiter plate was coated with BSA, fibronectin (FN), intact Tenascin-C (TN), and the recombinant proteins corresponding to: the Fbg-L domain (Fbg-L), the entire FN-L repeats (AII), the constitutively spliced repeats 6-8, the alternatively spliced A-D, A1A2, and D domains. An adhesion assay was performed with newborn SMCs. Values shown are from a representative experiment in which triplicates are plotted±SEM.
The ability of the synthetic peptides to directly interact with newborn cells was determined by an adhesion assay. […] In FIG. 8, 96-well plates were coated with solutions containing BSA (C), fibronectin (FN), Tenascin-C (TN), the fibrinogen-like domain (Fbg-L), and synthetic peptides at a concentration of 10 μg/ml in PBS. An adhesion assay was performed with newborn rat SMCs. Tissue culture plates were coated with increasing concentrations of peptides from 0.1 to 10 μg/ml, and the adhesion of newborn cells was measured. Values shown are from a representative experiment in which triplicates are plotted as mean±SEM.

[5] = test system: newborn rat SMCs migration on Tenascin-C substrate; assay: Migration assay (modified Boyden's chamber) on Tenascin-C substrate; format: cell-based
Experimental: (§7) Cell migration was measured by a modification of the Boyden's chamber method using microchemotaxis chambers (Neuro Probe Inc.). Polycarbonate filters were coated with 10 μg/ml of substrates overnight at 4° C. Newborn rat SMCs were suspended at a concentration of 10^5 cells/ml in serum-free DMEM supplemented with 1 mg/ml BSA. A volume of 50 μl of cell suspension was placed in the upper chamber, and 30 μl of 10% bovine calf serum in DMEM was placed in the lower chamber. In some experiments, cells were suspended in DMEM supplemented with 0.1 μM of the fibrinogen-like domain (Fbg-L) or 1 μM of peptide VIII before addition to the upper chamber. The chamber was incubated at 37° C. under 5% CO2 in air for 4 hours. The filter was removed, and the cells on the upper side of the filter were scraped off. The SMCs that had migrated to the lower side of the filter were fixed in methanol, stained with Diff-Quick staining solution (Baxter) and counted under a microscope.
(§8) To map the active domain of Tenascin-C that is involved in cell migration, the ability of the recombinant domains to block SMCs migration on a Tenascin-C substrate was determined. […] In FIG. 9, cell migration was measured by a modification of Boyden's chamber. […] Migrating cells were fixed and counted under a microscope. Nine high power fields (HPF) were counted for each triplicate. […]

[6] = test system: newborn rat SMCs migration on collagen substrate; assay: Migration assay (modified Boyden's chamber) on collagen substrate; format: cell-based; settings: Fbg-L or 1 μM peptide VIII in upper chamber
Experimental: as §7, §8

adult rat aortic SMCs = assay: Adhesion assay: adult aortic SMCs on wells coated with the substance; format: cell-based; settings: for adhesion of adult SMCs to coated substrate: 60 min, crystal violet absorbance
Experimental: as §6, §1
Interaction between aortic SMCs and Tenascin-C was assessed by an adhesion assay. […] In FIG. 1, 96-well plates were coated with solutions containing intact fibronectin (FN), vitronectin (VN) or Tenascin-C (TN) and incubated with either adult or newborn aortic SMCs. Adhesion is measured by determining absorbance of attached cells after staining with crystal violet. Values shown are from a representative experiment in which triplicates are plotted as mean±SEM.

[7] = increasing cation concentration
[8] = various concentrations of cation

Molecule: [Mg+2] [Mg^2+]
- effect on adhesion of SMCs to Tenascin-C (summary statement) [1]: promoted
- increase potential for the interaction between newborn SMCs and Tenascin-C ([1]; in the presence of Mg^2+): three-fold
- cation concentration giving maximal cell adhesion to Tenascin-C [1, 7]: 5 to 10 mM
- effect of cation on newborn SMCs adhesion to Tenascin-C [1, 8]: increased
- cation concentration giving maximal cell adhesion to the recombinant fibronectin fragment [2, 7]: 5 to 10 mM
- effect of cation on newborn SMCs adhesion to the recombinant fibronectin fragment [2, 8]: increased
- effect on adhesion of SMCs to the Fbg-L domain [3]: promoted
- effect on adhesion to peptide VIII [4]: promoted

Molecule: GRGDS
- inhibition of attachment of SMCs to Tenascin-C [1]: approximately 30%
- inhibition of attachment of SMCs to Tenascin-C ([1]; listed as RGD peptide): 30%
- inhibition of attachment of newborn SMCs to the recombinant fibronectin fragment ([2]; 0.1 mg/ml peptide, 30 min preincubation): complete inhibition

Molecule: GRFDS
- effect of inactive control peptide on adhesion (compared with GRGDS) ([1]; not shown): no effect

Molecule: IX: 30 amino acid synthetic peptide from the C-terminal part of the Fbg-L domain of Tenascin-C, Seq. Id. No. 9 (FHWKGHEHSIQFAEMKLRPSNFRNLEGRRKRA)
- adhesion activity relative to the Fbg-L domain (newborn aortic SMCs): 30%

Molecule: peptide VIII: 30 amino acid synthetic peptide located near the C-terminal part of the Fbg-L domain of Tenascin-C, Seq. Id. No. 8 (WYRNCHRVNLMGRYGDNNHSQGVNWFHWKG)
- adhesion activity relative to the Fbg-L domain (newborn aortic SMCs): 80%
- level of adhesion of newborn SMCs to coated substrate (newborn aortic SMCs): strongly promoting newborn cell adhesion
- effect on adhesion of SMCs to Tenascin-C (summary statement) [1]: completely blocked
- inhibition of SMCs chemotaxis on Tenascin-C substrate ([5]; 0.1 μM Fbg-L or 1 μM peptide VIII in upper chamber, 4 hours): ~70%
- effect on migration of SMCs on collagen substrate [6]: did not interfere

Molecule: fibronectin
- adhesion of adult SMCs to coated substrate (adult rat aortic SMCs): avidly adhered

Molecule: Tenascin-C: intact Tenascin-C purified from conditioned media of BHK cells overexpressing Tenascin-C
- coating concentration at which cell adhesion reached saturation levels (newborn aortic SMCs; increasing coating concentrations): 10 µg/mL
- adhesion of newborn SMCs to Tenascin-C relative to adult cells (newborn aortic SMCs; newborn vs adult SMCs, coated wells): 3-4 times higher
- level of adhesion of newborn SMCs to coated substrate (newborn aortic SMCs): comparable to the attachment levels observed with fibronectin; also recorded: high compared to the fibronectin
- adhesion of adult SMCs to Tenascin-C relative to attachment to the adhesive proteins (fibronectin, vitronectin) (adult rat aortic SMCs; coated wells): 3-4 times lower
- SMCs chemotaxis on coated substrate compared to BSA ([5]; filters coated with 10 μg/ml substrate): stimulated

B1: vitronectin: vitronectin matrix protein (protein, UniProt P04004 20-478, looked up)
Vitronectin: DQESCKGRCTEGFNVDKKCQCDELCSYYQSCCTDYTAECKPQVTRGDVFTMPEDEYTVYDDGEEKNNATVHEQVGGPSLTSDLQAQSKGNPEQTPVLKPEEEAPAPEVGASKPEGIDSRPETLHPGRPQPPAEEELCSGKPFDAFTDLKNGSLFAFRGQYCYELDEKAVRPGYPKLIRDVWGIEGPIDAAFTRINCQGKTYLFKGSQYWRFEDGVLDPDYPRNISDGFDGIPDNVDAALALPAHSYSGRERVYFFKGKQYWEYQFQHQPSQEECEGSSLSAVFEHFAMMQRDSWEDIFELLFWGRTSAGTRQPQFISRDWHGVPGQVDAAMAGRIYISGMAPRPSLAKKQRFRHRNRKGYRSQRGHSRGRNQNSRRPSRATWLSLFSSEESNLGANNYDDYRMDWLVPATCEPIQSVFFFSGDKYYRVNLRTRRVDTVDPPYPRSIAQYWLGCPAPGHL
- adhesion of adult SMCs to coated substrate (adult rat aortic SMCs): avidly adhered
